The supplement of paper PMC4628005

Experiments:
Details in all cases: drug exposure time: 96 h
Serdemetan = compound: c1ccc2c(CCNc3ccc(Nc4ccncc4)cc3)c[nH]c2c1 [Serdemetan]
Protocol: (§1)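 Breast cancer cell lines were grown in RPMI 1640 with 10% FBS on collagen I-coated 96-well plates and treated for 96 h (from 24 h after seeding) with 12 dilutions per drug, in triplicate. Growth was read by sulforhodamine B total-protein staining (absorbance 570 nm) relative to diluent control, and IC50 was calculated. The top dose was 1e-5 M for most drugs; Bortezomib went to 2e-5 M and Sirolimus and 17-AAG to 2e-6 M[…].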

Docetaxel = compound: CC(=O)O[C@@]12CO[C@@H]1C[C@H](O)[C@@]1(C)C(=O)[C@H](O)C3=C(C)[C@@H](OC(=O)[C@H](O)[C@@H](NC(=O)OC(C)(C)C)c4ccccc4)C[C@@](O)([C@@H](OC(=O)c4ccccc4)[C@H]21)C3(C)C [Docetaxel]
Protocol: as §1

Nutlin-3 = compound: COc1ccc(C2=N[C@@H](c3ccc(Cl)cc3)[C@@H](c3ccc(Cl)cc3)N2C(=O)N2CCNC(=O)C2)c(OC(C)C)c1 [Nutlin-3]
Protocol: as §1

Sunitinib = compound: CCN(CC)CCNC(=O)c1c(C)[nH]c(/C=C2\C(=O)Nc3ccc(F)cc32)c1C [Sunitinib]
Protocol: as §1

Quisinostat = compound: Cn1cc(CNCC2CCN(c3ncc(C(=O)NO)cn3)CC2)c2ccccc21 [Quisinostat]
Protocol: as §1

Paclitaxel = compound: CC(=O)O[C@H]1C(=O)[C@@]2(C)[C@H]([C@H](OC(=O)c3ccccc3)[C@]3(O)C[C@H](OC(=O)[C@H](O)[C@@H](NC(=O)c4ccccc4)c4ccccc4)C(C)=C1C3(C)C)[C@]1(OC(C)=O)CO[C@@H]1C[C@@H]2O [Paclitaxel]
Protocol: as §1

Brivanib = compound: Cc1cc2c(F)c(Oc3ncnn4cc(OC[C@@H](C)O)c(C)c34)ccc2[nH]1 [Brivanib]
Protocol: as §1

Vorinostat = compound: O=C(CCCCCCC(=O)Nc1ccccc1)NO [Vorinostat]
Protocol: as §1

Cisplatin = compound: N.N.[Cl][Pt][Cl] [Cisplatin]
Protocol: as §1

Tamoxifen = compound: CC/C(=C(\c1ccccc1)c1ccc(OCCN(C)C)cc1)c1ccccc1 [Tamoxifen]
Protocol: as §1

Doxorubicin = compound: COc1cccc2c1C(=O)c1c(O)c3c(c(O)c1C2=O)C[C@@](O)(C(=O)CO)C[C@@H]3O[C@H]1C[C@H](N)[C@H](O)[C@H](C)O1 [Doxorubicin]
Protocol: as §1

5-Fluorouracil = compound: O=c1[nH]cc(F)c(=O)[nH]1 [5-Fluorouracil]
Protocol: as §1

Dasatinib = compound: Cc1nc(Nc2ncc(C(=O)Nc3c(C)cccc3Cl)s2)cc(N2CCN(CCO)CC2)n1 [Dasatinib]
Protocol: as §1

Tipifarnib = compound: Cn1cncc1[C@@](N)(c1ccc(Cl)cc1)c1ccc2c(c1)c(-c1cccc(Cl)c1)cc(=O)n2C [Tipifarnib]
Protocol: as §1

Gefitinib = compound: COc1cc2ncnc(Nc3ccc(F)c(Cl)c3)c2cc1OCCCN1CCOCC1 [Gefitinib]
Protocol: as §1

Azacitidine = compound: Nc1ncn([C@@H]2O[C@H](CO)[C@@H](O)[C@H]2O)c(=O)n1 [Azacitidine]
Protocol: as §1

Erlotinib = compound: C#Cc1cccc(Nc2ncnc3cc(OCCOC)c(OCCOC)cc23)c1 [Erlotinib]
Protocol: as §1

Lapatinib = compound: CS(=O)(=O)CCNCc1ccc(-c2ccc3ncnc(Nc4ccc(OCc5cccc(F)c5)c(Cl)c4)c3c2)o1 [Lapatinib]
Protocol: as §1

Belinostat = compound: O=C(/C=C/c1cccc(S(=O)(=O)Nc2ccccc2)c1)NO [Belinostat]
Protocol: as §1

Sorafenib = compound: CNC(=O)c1cc(Oc2ccc(NC(=O)Nc3ccc(Cl)c(C(F)(F)F)c3)cc2)ccn1 [Sorafenib]
Protocol: as §1

Methotrexate = compound: CN(Cc1cnc2nc(N)nc(N)c2n1)c1ccc(C(=O)N[C@@H](CCC(=O)O)C(=O)O)cc1 [Methotrexate]
Protocol: as §1

MI-219 = compound: CC(C)(C)C[C@H]1N[C@@H](C(=O)NCC[C@H](O)CO)[C@H](c2cccc(Cl)c2)[C@@]12C(=O)Nc1cc(Cl)c(F)cc12 [MI-219]
Protocol: as §1

Decitabine = compound: Nc1ncn([C@H]2C[C@H](O)[C@@H](CO)O2)c(=O)n1 [Decitabine]
Protocol: as §1

Vandetanib = compound: COc1cc2/c(=N/c3ccc(Br)cc3F)nc[nH]c2cc1OCC1CCN(C)CC1 [Vandetanib]
Protocol: as §1

Panobinostat = compound: Cc1[nH]c2ccccc2c1CCNCc1ccc(/C=C/C(=O)NO)cc1 [Panobinostat]
Protocol: as §1

ARQ197 = compound: O=C1NC(=O)[C@@H](c2cn3c4c(cccc24)CCC3)[C@@H]1c1c[nH]c2ccccc12 [ARQ197]
Protocol: as §1

Mitoxantrone = compound: O=C1c2c(O)ccc(O)c2C(=O)c2c(NCCNCCO)ccc(NCCNCCO)c21 [Mitoxantrone]
Protocol: as §1

Sirolimus = compound: CO[C@H]1C[C@@H]2CC[C@@H](C)[C@@](O)(O2)C(=O)C(=O)N2CCCC[C@H]2C(=O)O[C@H]([C@H](C)C[C@@H]2CC[C@@H](O)[C@H](OC)C2)CC(=O)[C@H](C)/C=C(\C)[C@@H](O)[C@@H](OC)C(=O)[C@H](C)C[C@H](C)/C=C/C=C/C=C/1C [Sirolimus]
Protocol: (§2)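 Same SRB 96 h IC50 screen on breast cancer cell lines (RPMI 1640 + 10% FBS, collagen I-coated 96-well plates, triplicates, 12 dilutions), for drugs with a different dose range: Bortezomib up to 2e-5 M; Sirolimus and 17-AAG up to 2e-6 M. Sirolimus values at the 2e-6 M top dose are censored.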

Bortezomib = compound: CC(C)C[C@H](NC(=O)[C@H](Cc1ccccc1)NC(=O)c1cnccn1)B(O)O [Bortezomib]
Protocol: as §2

17-AAG = compound: C=CCNC1=C2C[C@@H](C)C[C@H](OC)[C@H](O)[C@@H](C)/C=C(\C)[C@H](OC(N)=O)[C@@H](OC)/C=C\C=C(/C)C(=O)NC(=CC1=O)C2=O [17-AAG]
Protocol: as §2

Test System | IC50 (SRB growth assay) (Serdemetan) [µM] | IC50 (SRB growth assay) (Docetaxel) [pM] | IC50 (SRB growth assay) (Nutlin-3) [µM] | IC50 (SRB growth assay) (Sunitinib) [µM] | IC50 (SRB growth assay) (Quisinostat) [nM] | IC50 (SRB growth assay) (Paclitaxel) [nM] | IC50 (SRB growth assay) (Brivanib) [µM] | IC50 (SRB growth assay) (Vorinostat) [nM] | IC50 (SRB growth assay) (Cisplatin) [µM] | IC50 (SRB growth assay) (Tamoxifen) [µM] | IC50 (SRB growth assay) (Doxorubicin) [nM] | IC50 (SRB growth assay) (5-Fluorouracil) [µM] | IC50 (SRB growth assay) (Dasatinib) [µM] | IC50 (SRB growth assay) (Tipifarnib) [nM] | IC50 (SRB growth assay) (Gefitinib) [µM] | IC50 (SRB growth assay) (Azacitidine) [µM] | IC50 (SRB growth assay) (Erlotinib) [µM] | IC50 (SRB growth assay) (Lapatinib) [µM] | IC50 (SRB growth assay) (Belinostat) [nM] | IC50 (SRB growth assay) (Sorafenib) [µM] | IC50 (SRB growth assay) (Methotrexate) [nM] | IC50 (SRB growth assay) (MI-219) [µM] | IC50 (SRB growth assay) (Decitabine) [µM] | IC50 (SRB growth assay) (Vandetanib) [µM] | IC50 (SRB growth assay) (Panobinostat) [nM] | IC50 (SRB growth assay) (ARQ197) [nM] | IC50 (SRB growth assay) (Mitoxantrone) [nM] | IC50 (SRB growth assay) (Sirolimus) [pM] | IC50 (SRB growth assay) (Bortezomib) [nM] | IC50 (SRB growth assay) (17-AAG) [nM]
HCC 1419 | 2.45 | 15200 | > 10 | 9.93 | 3.8 | 33.3 | > 10 | 542 | > 10 | 4.58 | 153 | > 10 | 6.03 | 550 | 2.68 | > 10 | 2.72 | 0.0284 | 174 | 3.45 | 164 | > 10 | > 10 | 3.54 | 6.31 | 1210 | 126 | 195 | 4.28 | 14
MPE 600 | 2.26 | 1150 | 4.45 | 6.56 | 14.8 | 2.51 | > 10 | 1220 | > 10 | > 10 | 26.6 | 1.25 | > 10 | 631 | 4.26 | 0.548 | 8.85 | 3.08 | 379 | 1.9 | 31 | 2.05 | 0.595 | 1.99 | 13.8 | 859 | 8.01 | 1520 | 5.48 | 104
HCC 1395 | 1.52 | 408 | > 10 | 8.6 | 13 | 1.76 | > 10 | 2390 | > 10 | 7.58 | 55.5 | 3.75 | > 10 | 469 | > 10 | 2.18 | > 10 | 3.75 | 1070 | 6.31 | 1940 | > 10 | > 10 | 7.74 | 26.6 | 381 | 26.1 | 636 | 5.53 | 140
T 47 D | 1.1 | 620 | > 10 | 4.31 | 8.14 | 1.72 | > 10 | 828 | > 10 | 3.42 | 10.4 | 2.8 | > 10 | 403 | 8.77 | 7.3 | 7.14 | 2.21 | 239 | 2.73 | > 10000 | > 10 | > 10 | 2.52 | 10.5 | 1460 | 2.65 | 143 | 1.7 | 913
MDA-MB 453 | 0.796 | 872 | > 10 | 6.26 | 2.01 | 2.14 | > 10 | 368 | > 10 | 6.36 | 31.9 | > 10 | 0.00393 | 2140 | > 10 | 7.19 | > 10 | 0.827 | 52.7 | 4.93 | > 10000 | > 10 | 4.17 | 5.11 | 5.73 | 192 | 8.79 | 190 | 6.37 | 3.08
SUM 44 PE | 2.88 | 414 | > 10 | 5.02 | 2.21 | 1.35 | > 10 | 564 | > 10 | 5.2 | 30.8 | 8.64 | > 10 | 3270 | > 10 | 3.44 | > 10 | 4.76 | 139 | 5.05 | > 10000 | > 10 | > 10 | 4.2 | 9.33 | 539 | 20.7 | 222 | 9.46 | 15.8
MDA-MB 361 | 3.95 | 1410 | > 10 | > 10 | 3.95 | 4.81 | > 10 | 723 | > 10 | 8.84 | 67 | > 10 | 6.02 | 2210 | 4.6 | > 10 | 3.87 | 0.499 | 469 | 5.77 | 729 | > 10 | > 10 | 4.37 | 8.08 | 417 | 25.9 | 259 | 6.68 | 41.4
